Data as given in the NIST ThermoML archive (doi:10.1021/je030136n).

Assay: xn = mol fraction of the nth substance listed
Details: Liquid, Pulse-echo method

CCCCCCC [heptane] + CCCO
Details	speed of sound [m/s]
293.1 K, 45590 kPa, x2 = 0.6027	1414.5
293.1 K, 91190 kPa, x2 = 0.1008	1599
293.1 K, 91190 kPa, x2 = 0.3008	1594.3
293.1 K, 111450 kPa, x2 = 0	1674.3
293.11 K, 45590 kPa, x2 = 0.1008	1412
293.11 K, 121580 kPa, x2 = 0.7986	1691.8
293.12 K, 100 kPa, x2 = 0.4992	1158.2
293.12 K, 30400 kPa, x2 = 0.7986	1355.6
293.12 K, 45590 kPa, x2 = 0.7986	1424
293.12 K, 75990 kPa, x2 = 0.7986	1543.1
293.13 K, 100 kPa, x2 = 0.6027	1164.9
293.13 K, 30400 kPa, x2 = 0.6027	1343.3
293.13 K, 45590 kPa, x2 = 0.4992	1412.6
293.13 K, 60790 kPa, x2 = 0.7986	1486.1
293.13 K, 75990 kPa, x2 = 0.1008	1541.8
293.13 K, 121580 kPa, x2 = 0.1008	1701.6
293.14 K, 100 kPa, x2 = 0.7016	1173.8
293.14 K, 100 kPa, x2 = 0.7986	1185.8
293.14 K, 60790 kPa, x2 = 0.6027	1478.7
293.14 K, 91190 kPa, x2 = 0.6027	1592.5
293.14 K, 101320 kPa, x2 = 0.1008	1634.7
293.14 K, 111450 kPa, x2 = 0.3008	1663.3
293.14 K, 111450 kPa, x2 = 0.7986	1661.2
293.15 K, 100 kPa, x2 = 0	1151.7
293.15 K, 75990 kPa, x2 = 0.6027	1537.8
293.15 K, 111450 kPa, x2 = 0.1008	1668.9
293.16 K, 30400 kPa, x2 = 0.7016	1348.5
293.16 K, 60790 kPa, x2 = 0.4992	1478
293.16 K, 75990 kPa, x2 = 0.4992	1537.8
293.16 K, 91190 kPa, x2 = 0.7986	1595.9
293.16 K, 101320 kPa, x2 = 0.3008	1629.5
293.16 K, 111450 kPa, x2 = 0.6027	1659.8
293.16 K, 121580 kPa, x2 = 0	1707.1
293.16 K, 121580 kPa, x2 = 0.7016	1691
293.17 K, 30400 kPa, x2 = 0.4992	1340.5
293.17 K, 45590 kPa, x2 = 0.7016	1418.3
293.17 K, 101320 kPa, x2 = 0.7986	1629.2
293.17 K, 121580 kPa, x2 = 0.3008	1695.5
293.18 K, 30400 kPa, x2 = 0	1341.5
293.18 K, 60790 kPa, x2 = 0.7016	1481.6
293.18 K, 101320 kPa, x2 = 0.6027	1626.9
293.18 K, 111450 kPa, x2 = 0.7016	1659.9
293.18 K, 121580 kPa, x2 = 0.6027	1691.2
293.19 K, 45590 kPa, x2 = 0	1416.6
293.19 K, 60790 kPa, x2 = 0.1008	1479.6
293.19 K, 60790 kPa, x2 = 0.3008	1476.8
293.19 K, 91190 kPa, x2 = 0.4992	1592.6
293.19 K, 101320 kPa, x2 = 0.7016	1627.5
293.2 K, 15200 kPa, x2 = 0	1256.3
293.2 K, 60790 kPa, x2 = 0	1484.5
293.2 K, 75990 kPa, x2 = 0	1546.5
293.2 K, 75990 kPa, x2 = 0.3008	1537.7
293.2 K, 75990 kPa, x2 = 0.7016	1539.8
293.2 K, 91190 kPa, x2 = 0	1603.7
293.2 K, 91190 kPa, x2 = 0.7016	1593.7
293.2 K, 101320 kPa, x2 = 0	1639.7
293.21 K, 100 kPa, x2 = 0.3008	1149.9
293.21 K, 30400 kPa, x2 = 0.3008	1336.5
293.21 K, 101320 kPa, x2 = 0.4992	1627.3
293.21 K, 111450 kPa, x2 = 0.4992	1660.5
293.22 K, 100 kPa, x2 = 0.1008	1147.3
293.22 K, 15200 kPa, x2 = 0.1008	1252
293.22 K, 30400 kPa, x2 = 0.1008	1337
293.22 K, 45590 kPa, x2 = 0.3008	1410.2
293.23 K, 121580 kPa, x2 = 0.4992	1692.2
298.06 K, 121580 kPa, x2 = 0.6027	1679
298.1 K, 101320 kPa, x2 = 0.3008	1616
298.11 K, 75990 kPa, x2 = 0	1531.6
298.13 K, 100 kPa, x2 = 0.4992	1137
298.13 K, 101320 kPa, x2 = 0.4992	1614.4
298.13 K, 111450 kPa, x2 = 0	1660.5
298.13 K, 111450 kPa, x2 = 0.6027	1647.1
298.13 K, 111450 kPa, x2 = 0.7986	1649.2
298.14 K, 91190 kPa, x2 = 0.4992	1579.3
298.14 K, 111450 kPa, x2 = 0.3008	1650.1
298.14 K, 121580 kPa, x2 = 0	1692.4
298.14 K, 121580 kPa, x2 = 0.1008	1688.8
298.14 K, 121580 kPa, x2 = 0.4992	1679.9
298.15 K, 100 kPa, x2 = 0.1008	1125.7
298.15 K, 30400 kPa, x2 = 0.4992	1323.2
298.15 K, 30400 kPa, x2 = 0.7986	1339.6
298.15 K, 60790 kPa, x2 = 0.4992	1462.7
298.15 K, 75990 kPa, x2 = 0.4992	1523.3
298.15 K, 91190 kPa, x2 = 0	1589.4
298.15 K, 101320 kPa, x2 = 0.6027	1613.9
298.15 K, 111450 kPa, x2 = 0.4992	1647.9
298.15 K, 121580 kPa, x2 = 0.3008	1682.7
298.16 K, 100 kPa, x2 = 0	1129.9
298.16 K, 45590 kPa, x2 = 0.1008	1395.7
298.16 K, 45590 kPa, x2 = 0.4992	1396.7
298.16 K, 45590 kPa, x2 = 0.7986	1408.9
298.16 K, 101320 kPa, x2 = 0	1625.7
298.16 K, 101320 kPa, x2 = 0.1008	1620.6
298.16 K, 111450 kPa, x2 = 0	1660.4
298.17 K, 100 kPa, x2 = 0.7986	1166.7
298.17 K, 15200 kPa, x2 = 0.1008	1232.9
298.17 K, 30400 kPa, x2 = 0.1008	1319.5
